# Laboratory results taken from patent US11440906B2, “Biguanide derivatives and their rearrangement products for use in the treatment of cancer” (CENTRE NATIONAL DE LA RECHERCHE SCIENTIFIQUE, priority 2017, dated 2022).
# Like-named read-outs stand apart in the source and are kept apart here.
# Tests used:
# [1] = system: A375 resistant melanoma cells; experiment: In vivo murine cancer model, A375 resistant xenograft; parameters: species or system BALB/c nu/nu (nude) mice; settings: 0.7 mg/mouse/day intraperitoneal
# Procedure: Animal experiments were carried out in accordance with the Declaration of Helsinki and were approved by a local ethical committee CIEPAL (Comité Institutionnel d'Ethique Pour l'Animal de Laboratoire-Azur). Female immune-deficient BALB/c nu/nu (nude) mice were obtained at 5 weeks of age from Envigo Laboratory (Gannat, France). Nude mice were inoculated subcutaneously with A375 sensitive or resistant melanoma cells (1.0×10^6 cells/mouse). After tumor apparition (±5 days), animals received intraperitoneal injection of Labrafil (Control), PLX4032 (0.7 mg/mouse/day) or CRO15 (0.7 mg/mouse/day) dissolved in Labrafil. The growth tumor curves were determined by measuring the tumor volume using the equation V=(L*W2)/2 (V=tumor volume, W=tumor width, L=tumor length). At the end of the experiment, mice were euthanized by cervical dislocation and tumors were taken for western blot and immunofluorescence experiments (LC3, Cleaved Caspase 3). TUNEL assay was performed using the In Situ Cell Death Detection Kit (Roche, Meylan, France). The results are shown in FIGS. 3A and 3B (A375 sensitive melanoma cells), and 4B and 4C (A375 resistant melanoma cells).
# In Vivo Murine Cancer Model Animal experiments were carried out in accordance with the Declaration of Helsinki and were approved by a local ethical committee CIEPAL (Comite Institutionnel d'Ethique Pour l'Animal de Laboratoire-Azur). Female immune-deficient BALB/c nu/nu (nude) mice were obtained at 5 weeks of age from Envigo Laboratory (Gannat, France). Nude mice were inoculated subcutaneously with A375 resistant melanoma cells (1.0×10^6 cells/mouse). After tumor apparition (+5 days), animals received intraperitoneal injection of Labrafil (Control), PLX4032 (0.7 mg/mouse/day) or MTF319 (0.7 mg/mouse/day) dissolved in Labrafil. The growth tumor curves were determined by measuring the tumor volume using the equation V=(L*W2)/2 (V=tumor volume, W=tumor width, L=tumor length). At the end of the experiment, mice were euthanized by cervical dislocation.
# A375 Sensitive cells = experiment: Viability test, trypan blue exclusion, A375 Sensitive cells; assay type: cell-based, human; settings: Homo sapiens, A-375, viable cells as percentage of DMSO control
# Method in brief: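 A375 (B-Raf, CDKN2A, PTEN mutant) cells were exposed to compounds at 5.0 or 10 μM for 24 or 48 hr; CRO15 also at 0.5–50 μM for 48 hr or 5 μM for 2–48 hr; DMSO control. Viable cells were counted by trypan blue exclusion, as % of control. Three experiments in triplicate.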
# melanoma cells = settings: literature, read-out: IC50 to induce cell death; cited from earlier work
# [2] = 24 h, read-out: Viab A375 5 μM/ 24 h
# [3] = 48 h, read-out: Viab A375 5 μM/ 48 h
# [4] = 24 h, read-out: Viab A375 10 μM/ 24 h
# [5] = 48 h, read-out: Viab A375 10 μM/ 48 h
smiles,measurement,setting,value
"CCOc1cccc(-c2nc(N)nc(Nc3ccccc3SSc3ccccc3Nc3nc(N)nc(-c4cccc(OCC)c4)n3)n2)c1 [MTF 319, N2,N2′-(disulfanediylbis(2,1-phenylene))bis(6-(3-ethoxyphenyl)-1,3,5-triazine-2,4-diamine)]",tumor volume,"[1]; FIG. 4B, 6A",decrease in tumor volume
same,tumor weight,"[1]; FIG. 4C, 6B",had an effect on the tumor growth
same,viability at 5 µM,A375 Sensitive cells; [2],8.6%
same,viability at 5 µM,A375 Sensitive cells; [3],3.1%
same,viability at 10 µM,A375 Sensitive cells; [4],8.6%
same,viability at 10 µM,A375 Sensitive cells; [5],0.6%
"Nc1nc(Nc2ccccc2SSc2ccccc2Nc2nc(N)nc(-c3c(Br)cncc3Br)n2)nc(-c2c(Br)cncc2Br)n1 [MTF 456, N2,N2′-(disulfanediylbis(2,1-phenylene))bis(6-(3,5-dibromopyridin-4-yl)-1,3,5-triazine-2,4-diamine)]",viability at 5 µM,A375 Sensitive cells; [2],66.5%
same,viability at 5 µM,A375 Sensitive cells; [3],87.5%
same,viability at 10 µM,A375 Sensitive cells; [4],52.3%
same,viability at 10 µM,A375 Sensitive cells; [5],76.1%
"Nc1nc(Nc2ccccc2SSc2ccccc2Nc2nc(N)nc(-c3cc4c(cc3Br)OCO4)n2)nc(-c2cc3c(cc2Br)OCO3)n1 [MTF 458, N2,N2′-(disulfanediylbis(2,1-phenylene))bis(6-(6-bromobenzo[d][1,3]dioxol-5-yl)-1,3,5-triazine-2,4-diamine)]",viability at 5 µM,A375 Sensitive cells; [2],58.7%
same,viability at 5 µM,A375 Sensitive cells; [3],86.8%
same,viability at 10 µM,A375 Sensitive cells; [4],46.5%
same,viability at 10 µM,A375 Sensitive cells; [5],104%
"Nc1cccc(-c2nc(N)nc(Nc3ccccc3SSc3ccccc3Nc3nc(N)nc(-c4cccc(N)c4)n3)n2)c1 [MTF 460, N2,N2′-(disulfanediylbis(2,1-phenylene))bis(6-(3-aminophenyl)-1,3,5-triazine-2,4-diamine)]",viability at 5 µM,A375 Sensitive cells; [2],61.9%
same,viability at 5 µM,A375 Sensitive cells; [3],69.5%
same,viability at 10 µM,A375 Sensitive cells; [4],64.5%
same,viability at 10 µM,A375 Sensitive cells; [5],38.6%
"CC(=O)c1cccc(-c2nc(N)nc(Nc3ccccc3SSc3ccccc3Nc3nc(N)nc(-c4cccc(C(C)=O)c4)n3)n2)c1 [MTF 462, 1,1′-((((disulfanediylbis(2,1-phenylene))bis(azanediyl))bis(6-amino-1,3,5-triazine-4,2-diyl))bis(3,1-phenylene))bis(ethan-1-one)]",viability at 5 µM,A375 Sensitive cells; [2],101%
same,viability at 5 µM,A375 Sensitive cells; [3],80%
same,viability at 10 µM,A375 Sensitive cells; [4],4.8%
same,viability at 10 µM,A375 Sensitive cells; [5],44.1%
"Nc1nc(Nc2ccccc2SSc2ccccc2Nc2nc(N)nc(-c3ccccc3[N+](=O)[O-])n2)nc(-c2ccccc2[N+](=O)[O-])n1 [MTF 463, N2,N2′-(disulfanediylbis(2,1-phenylene))bis(6-(2-nitrophenyl)-1,3,5-triazine-2,4-diamine)]",viability at 5 µM,A375 Sensitive cells; [2],80%
same,viability at 5 µM,A375 Sensitive cells; [3],74.3%
same,viability at 10 µM,A375 Sensitive cells; [4],56.1%
same,viability at 10 µM,A375 Sensitive cells; [5],43.4%
CN(C)C(=N)N=C(N)N [metformin],IC50,melanoma cells,10 mM
